Source: ChEMBL document CHEMBL1201862, “PubChem BioAssay data set” (2004)
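In this assay, cells in 96-well plates receive the compound at five concentrations for 48 hours. Endpoints are linearly interpolated between the surrounding concentrations. GI50: concentration for 50% inhibition of growth.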 Activity calls are given as the source filed them. Rule as the data show it: active = GI50 up to about 1.1 µM and inactive = higher.

How the values were obtained:
Experiment in all cases: inhibition of tumour cell growth, NCI panel, 48 h
[1] = test system: 786-0
[2] = test system: A498
[3] = test system: A549
[4] = test system: ACHN
[5] = test system: BT-549
[6] = test system: CAKI-1
[7] = test system: CCRF-CEM
[8] = test system: COLO 205
[9] = test system: DLD-1
[10] = test system: DMS-114
[11] = test system: DMS-273
[12] = test system: DU-145
[13] = test system: EKVX
[14] = test system: HCC 2998
[15] = test system: HCT-116
[16] = test system: HCT-15
[17] = test system: HL-60
[18] = test system: HOP-18
[19] = test system: HOP-62
[20] = test system: HOP-92
[21] = test system: HT-29
[22] = test system: IGROV-1
[23] = test system: K562
[24] = test system: KM-20L2
[25] = test system: KM12
[26] = test system: LOX IMVI
[27] = test system: LXFL 529
[28] = test system: M14
[29] = test system: M19-MEL
[30] = test system: MCF7
[31] = test system: MDA-MB-435
[32] = test system: MDA-N
[33] = test system: MOLT-4
[34] = test system: Malme-3M
[35] = test system: NCI-H226
[36] = test system: NCI-H23
[37] = test system: NCI-H460
[38] = test system: NCI-H522
[39] = test system: OVCAR-3
[40] = test system: OVCAR-4
[41] = test system: OVCAR-5
[42] = test system: OVCAR-8
[43] = test system: PC-3
[44] = test system: RPMI-8226
[45] = test system: RXF 393
[46] = test system: SF-268
[47] = test system: SF-295
[48] = test system: SF-539
[49] = test system: SK-MEL-28
[50] = test system: SK-MEL-2
[51] = test system: SK-MEL-5
[52] = test system: SK-OV-3
[53] = test system: SN12C
[54] = test system: SNB-19
[55] = test system: SNB-75
[56] = test system: SNB-78
[57] = test system: SR
[58] = test system: SW-620
[59] = test system: T47D
[60] = test system: TK-10
[61] = test system: U-251
[62] = test system: UACC-257
[63] = test system: UACC-62
[64] = test system: UO-31
[65] = test system: XF498

NC1=C(Cl)C(=O)c2ccccc2C1=O
GI50 [1]: 7.4 µM (inactive)
GI50 [2]: 19.9 µM (inactive)
GI50 [3]: 2.93 µM (inactive)
GI50 [4]: 9.27 µM (inactive)
GI50 [5]: 2.47 µM (inactive)
GI50 [6]: 17.3 µM (inactive)
GI50 [7]: 5.15 µM (inactive)
GI50 [8]: 11.3 µM (inactive)
GI50 [9]: 8.75 µM (inactive)
GI50 [10]: 3.89 µM (inactive)
GI50 [11]: 5.82 µM (inactive)
GI50 [12]: 1.87 µM (inactive)
GI50 [13]: 14.7 µM (inactive)
GI50 [14]: 10.6 µM (inactive)
GI50 [15]: 3.77 µM (inactive)
GI50 [16]: 3.46 µM
GI50 [17]: 3.55 µM (inactive)
GI50 [18]: 9.66 µM (inactive)
GI50 [19]: 11.4 µM (inactive)
GI50 [20]: 14.6 µM (inactive)
GI50 [21]: 4.99 µM (inactive)
GI50 [22]: 9.82 µM (inactive)
GI50 [23]: 8.11 µM (inactive)
GI50 [24]: 9.12 µM (inactive)
GI50 [25]: 8.05 µM (inactive)
GI50 [26]: 2.28 µM (inactive)
GI50 [27]: 12.6 µM (inactive)
GI50 [28]: 0.893 µM (active)
GI50 [29]: 0.518 µM (active)
GI50 [30]: 2.06 µM (inactive)
GI50 [31]: 0.8 µM (active)
GI50 [32]: 1.63 µM (inactive)
GI50 [33]: 5.7 µM (inactive)
GI50 [34]: 1.38 µM (inactive)
GI50 [35]: 7.35 µM (inactive)
GI50 [36]: 1.77 µM (inactive)
GI50 [37]: 3.43 µM (inactive)
GI50 [38]: 5.22 µM (inactive)
GI50 [39]: 2.45 µM (inactive)
GI50 [40]: 7.08 µM (inactive)
GI50 [41]: 10.3 µM (inactive)
GI50 [42]: 8.34 µM (inactive)
GI50 [43]: 1.79 µM (inactive)
GI50 [44]: 18.4 µM (inactive)
GI50 [45]: 7.67 µM (inactive)
GI50 [46]: 11.2 µM (inactive)
GI50 [47]: 6.87 µM (inactive)
GI50 [48]: 8.24 µM (inactive)
GI50 [49]: 4.67 µM (inactive)
GI50 [50]: 7.08 µM (inactive)
GI50 [51]: 0.834 µM (active)
GI50 [52]: 2.52 µM (inactive)
GI50 [53]: 5.04 µM (inactive)
GI50 [54]: 9.46 µM (inactive)
GI50 [55]: 11.3 µM (inactive)
GI50 [56]: 25.4 µM (inactive)
GI50 [57]: 4.32 µM (inactive)
GI50 [58]: 5.42 µM (inactive)
GI50 [59]: 2.87 µM (inactive)
GI50 [60]: 22.2 µM (inactive)
GI50 [61]: 4.34 µM (inactive)
GI50 [62]: 2.57 µM (inactive)
GI50 [63]: 1.08 µM (active)
GI50 [64]: 13.7 µM (inactive)
GI50 [65]: 11.2 µM (inactive)

O=C1NC2C3CC(OCc4ccccc4)(OCc4ccccc4)C2OC3O1 (configuration not stated)
GI50 [1]: > 50 µM (inactive)
GI50 [2]: > 50 µM (inactive)
GI50 [3]: > 50 µM (inactive)
GI50 [6]: > 50 µM (inactive)
GI50 [7]: > 50 µM (inactive)
GI50 [8]: > 50 µM (inactive)
GI50 [9]: > 50 µM (inactive)
GI50 [10]: > 50 µM (inactive)
GI50 [11]: > 50 µM (inactive)
GI50 [14]: > 50 µM (inactive)
GI50 [15]: > 50 µM (inactive)
GI50 [16]: > 50 µM
GI50 [17]: > 50 µM (inactive)
GI50 [18]: > 50 µM (inactive)
GI50 [19]: > 50 µM (inactive)
GI50 [20]: > 50 µM (inactive)
GI50 [21]: > 50 µM (inactive)
GI50 [22]: > 50 µM (inactive)
GI50 [23]: > 50 µM (inactive)
GI50 [25]: > 50 µM (inactive)
GI50 [26]: > 50 µM (inactive)
GI50 [27]: < 0.005 µM (active)
GI50 [28]: > 50 µM (inactive)
GI50 [29]: > 50 µM (inactive)
GI50 [33]: > 50 µM (inactive)
GI50 [34]: > 50 µM (inactive)
GI50 [35]: > 50 µM (inactive)
GI50 [36]: > 50 µM (inactive)
GI50 [39]: > 50 µM (inactive)
GI50 [40]: < 0.005 µM (active)
GI50 [41]: > 50 µM (inactive)
GI50 [44]: > 50 µM (inactive)
GI50 [46]: > 50 µM (inactive)
GI50 [47]: > 50 µM (inactive)
GI50 [48]: > 50 µM (inactive)
GI50 [49]: > 50 µM (inactive)
GI50 [50]: > 50 µM (inactive)
GI50 [51]: > 50 µM (inactive)
GI50 [52]: > 50 µM (inactive)
GI50 [53]: > 50 µM (inactive)
GI50 [55]: 48.6 µM (inactive)
GI50 [56]: < 0.005 µM (active)
GI50 [58]: > 50 µM (inactive)
GI50 [62]: 24.8 µM (inactive)
GI50 [63]: > 50 µM (inactive)
GI50 [64]: > 50 µM (inactive)
GI50 [65]: > 50 µM (inactive)
